Like-named read-outs stand apart in the source and are kept apart here.
Experiments:
Type in all cases: biochemical
PTPRQ [1] = target: T1, PTPRQ (Homo sapiens, UniProt Q9UMZ3); experiment: PTPRQ enzyme inhibition assay monitoring hydrolysis of pNPP; details: for inhibition at 100 µM: inhibitor 100 μM, duplicates
T1 construct: The catalytic domain of PTPRQ (PTPRQ-C, residues 2661–2948) was subcloned into pET28a; His tag; made in house; host or cells: Escherichia coli BL21 (DE3)
T1 sequence (Q9UMZ3 2015-2302 limits assumed): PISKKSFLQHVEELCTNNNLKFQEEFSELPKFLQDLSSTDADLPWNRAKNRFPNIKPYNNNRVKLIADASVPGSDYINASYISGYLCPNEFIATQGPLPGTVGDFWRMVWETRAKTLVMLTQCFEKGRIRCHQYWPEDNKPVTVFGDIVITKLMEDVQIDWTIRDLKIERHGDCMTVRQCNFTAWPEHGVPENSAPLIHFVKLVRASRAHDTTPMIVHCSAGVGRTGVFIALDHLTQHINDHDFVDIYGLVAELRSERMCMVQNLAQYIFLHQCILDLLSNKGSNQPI
Experimental: The catalytic domain of PTPRQ (PTPRQ-C, residues 2661–2948) was subcloned into pET28a and overexpressed using Escherichia coli BL21 (DE3) strain. Cells were grown at 291 K after induction with 0.1 mM IPTG for 20 hours. His-tagged PTPRQ-C was purified by nickel-affinity chromatography. 150 compounds selected from the precedent virtual screening were evaluated for their in vitro inhibitory activity against the recombinant human PTPRQ. Initial inhibitor screening was performed by monitoring the extent of hydrolysis of p-Nitrophenyl Phosphate (pNPP) with a […] assay. The purified PTPRQ-C (1.5 μM), pNPP (5 mM), and a candidate inhibitor were incubated in the reaction mixture containing 50 mM Bis-Tris (pH 6.0), 2 mM dithiothreitol for 60 minutes. This enzymatic reaction was stopped with the addition of sodium hydroxide (0.5 M). The phosphatase activities were then checked by the absorbance changes due to the hydrolysis of the substrate at 405 nm. IC50 values of the inhibitors were determined from direct regression curve analysis.

[2] = target: T2, PTP receptor type O (PTPRO) (Homo sapiens, UniProt Q16827); experiment: Selectivity inhibition assay against PTPRO; details: read-out: % inhibition at 100 μM for PTPRO
T2 sequence (Q16827 30-1216): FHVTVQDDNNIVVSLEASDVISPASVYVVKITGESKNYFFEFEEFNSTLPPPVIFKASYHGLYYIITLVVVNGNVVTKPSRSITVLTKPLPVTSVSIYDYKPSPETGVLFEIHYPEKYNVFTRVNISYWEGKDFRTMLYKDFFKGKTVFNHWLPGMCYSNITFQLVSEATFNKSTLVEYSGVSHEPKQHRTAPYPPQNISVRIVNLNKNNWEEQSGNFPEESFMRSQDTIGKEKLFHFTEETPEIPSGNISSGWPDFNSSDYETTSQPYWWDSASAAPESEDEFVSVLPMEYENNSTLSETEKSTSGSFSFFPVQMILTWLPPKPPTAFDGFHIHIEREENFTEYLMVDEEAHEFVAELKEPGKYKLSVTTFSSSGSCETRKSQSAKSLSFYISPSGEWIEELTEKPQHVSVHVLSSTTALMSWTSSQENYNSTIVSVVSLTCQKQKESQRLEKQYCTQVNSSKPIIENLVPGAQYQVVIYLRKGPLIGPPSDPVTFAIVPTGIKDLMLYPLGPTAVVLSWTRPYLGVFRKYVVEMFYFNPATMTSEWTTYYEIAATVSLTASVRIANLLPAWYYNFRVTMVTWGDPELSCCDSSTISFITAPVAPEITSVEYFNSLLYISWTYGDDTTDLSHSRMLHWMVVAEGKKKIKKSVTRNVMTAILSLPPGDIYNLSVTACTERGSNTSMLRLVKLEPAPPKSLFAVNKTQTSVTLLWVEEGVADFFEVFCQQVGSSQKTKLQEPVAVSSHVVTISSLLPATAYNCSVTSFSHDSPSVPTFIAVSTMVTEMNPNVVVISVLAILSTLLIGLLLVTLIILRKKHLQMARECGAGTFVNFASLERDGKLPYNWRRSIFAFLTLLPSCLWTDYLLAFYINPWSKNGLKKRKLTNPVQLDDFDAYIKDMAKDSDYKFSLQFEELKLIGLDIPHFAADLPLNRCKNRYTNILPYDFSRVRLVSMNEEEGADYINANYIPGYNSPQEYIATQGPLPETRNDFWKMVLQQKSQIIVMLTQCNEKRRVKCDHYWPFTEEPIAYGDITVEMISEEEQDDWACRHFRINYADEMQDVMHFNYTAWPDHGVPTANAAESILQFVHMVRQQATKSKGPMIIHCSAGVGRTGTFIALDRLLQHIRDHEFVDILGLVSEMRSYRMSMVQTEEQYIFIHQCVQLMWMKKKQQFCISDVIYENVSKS
Experimental: Because the selectivity has been one of the most important issues in the development of phosphatase inhibitors, we compared the inhibitory activities of 1–6 for PTPRQ to those for its homologous protein, PTP receptor type O (PTPRO). These inhibition assays for selectivity were done in duplicates at the inhibitor concentration of 100 μM. […] The simultaneous inhibitions of PTPRQ and PTPRO by 1–6 are actually not surprising because they share a highly conserved catalytic module. To obtain the specific inhibitors for PTPRQ, therefore, it seems that some chemical groups should be added to 1–6 in such a way that the resulting derivatives can be stabilized not only in the active site but also in other peripheral binding pockets.

PTPRQ [3] = target: T1, PTPRQ; experiment: Inhibition of hydrolysis of PI(3,4,5)P3 by PTPRQ (malachite green); details: 1.5 μM PTPRQ-C, 300 μM PI(3,4,5)P3, 100 μM inhibitor
Experimental: Six PTPRQ inhibitors identified under the above reaction conditions were further investigated using PI(3,4,5)P3 as the substrate (Cayman Chemical). The enzymatic activity of PTPRQ was measured in 80 μL reaction mixture containing 50 mM Tris–HCl (pH 6.0), 10 mM dithiothreitol, 300 μM PI(3,4,5)P3, 100 μM inhibitor, and 1.5 μM of the purified catalytic domain of PTPRQ. The mixture was incubated for 60 minutes at 310 K, and the enzymatic reaction was stopped by the addition of 20 μL of malachite green/ammonium molybdate reagent (Bioassay systems). The absorbance was measured at 650 nm using a plate reader.

[4] = pNPP 5 mM substrate, 1.5 μM PTPRQ-C, pH 6.0, 60 minutes, read-out: IC50 against PTPRQ

`CCOC(=O)Cn1cc(/C=C2/C(=O)NC(=O)N(c3cc(C)cc(C)c3)C2=O)c2ccccc21` [Compound 1] gave an IC50 (PTPRQ [1]) of 29.9 µM, an inhibition at 100 µM (PTPRQ [1]) of 71.1 ± 0.8% and an inhibition at 100 µM [2] of 94.4 ± 0.5%. The “inhibitory activity against the hydrolysis of PI(3,4,5)P3 by PTPRQ” value (“inhibitory activity” for short) (PTPRQ [3]) was “significant inhibitory activity”.
With `O=C1NC(=S)S/C1=C\c1cn(-c2ccccc2)nc1-c1ccccc1` [Compound 2] the inhibition at 100 µM (PTPRQ [1]) was 57.7 ± 0.4%, the IC50 (PTPRQ [1]; [4]) was 85.7 µM and the inhibition at 100 µM ([2]; inhibitor 100 μM, duplicates) was 94.2 ± 1.5%. The “inhibitory activity” value (PTPRQ [3]) was “significant inhibitory activity”.
Compound `CN1C(=O)/C(=C/c2ccc(OCc3cccc([N+](=O)[O-])c3)cc2)S/C1=N/c1cccc(C(=O)O)c1` [Compound 3] has an inhibition at 100 µM (PTPRQ [1]) of 50.9 ± 2.2%, an IC50 (PTPRQ [1]; [4]) of 63.8 µM and an inhibition at 100 µM ([2]; inhibitor 100 μM, duplicates) of 48.7 ± 2.1%. For the same compound, the “inhibitory activity” value (PTPRQ [3]) was “effect of reducing PTPRQ activity”.
Work on `COc1cccc(-c2nn(-c3ccccc3)cc2/C=C2\SC(=S)N(CCC(=O)O)C2=O)c1` [Compound 4] yielded an inhibition at 100 µM (PTPRQ [1]) of 82.6 ± 0.2%, an IC50 (PTPRQ [1]; [4]) of 44.8 µM and an inhibition at 100 µM ([2]; inhibitor 100 μM, duplicates) of 95 ± 3.5%.
Work on `O=C(O)CCN1C(=O)/C(=C\c2cccc(Oc3ccccc3)c2)SC1=S` [Compound 5] yielded an inhibition at 100 µM (PTPRQ [1]) of 62.5 ± 1.6%, an IC50 (PTPRQ [1]; [4]) of 65.3 µM and an inhibition at 100 µM ([2]; inhibitor 100 μM, duplicates) of 95 ± 0.8%.
Compound `COC(=O)c1cccc(-c2ccc(/C=C3\C(=O)N(c4cccc(C(=O)O)c4)N=C3C)o2)c1` [Compound 6] has an inhibition at 100 µM (PTPRQ [1]) of 57 ± 2.1%, an IC50 (PTPRQ [1]; [4]) of 73.1 µM and an inhibition at 100 µM ([2]; inhibitor 100 μM, duplicates) of 81.2 ± 0.9%. For the same compound, the “inhibitory activity” value (PTPRQ [3]) was “effect of reducing PTPRQ activity”.

Source: article PMC3765866, “Identification of novel PTPRQ phosphatase inhibitors based on the virtual screening with docking simulations” (Theoretical Biology & Medical Modelling, 2013)
